Patent US5082848A, “Substituted 4-aminoquinoline derivatives as gastric acid secretion inhibitors” (Smith Kline & French Laboratories, Ltd., priority 1988, dated 1992)

How the values were obtained:
[1] = target: T1, H^+ K^+ ATPase (Sus scrofa, UniProt P19156); experiment: K^+ -stimulated ATPase activity in lyophilised gastric vesicles; assay type: biochemical; details: lyophilised gastric vesicles from pig fundic mucosa, 37° C., pH 7.0, 30 minutes
T1 construct: Lyophilised gastric vesicles were prepared from pig fundic mucosa; from tissue; host or cells: pig fundic (gastric) mucosa, lyophilised gastric vesicles
T1 sequence (P19156 2-1034 limits assumed): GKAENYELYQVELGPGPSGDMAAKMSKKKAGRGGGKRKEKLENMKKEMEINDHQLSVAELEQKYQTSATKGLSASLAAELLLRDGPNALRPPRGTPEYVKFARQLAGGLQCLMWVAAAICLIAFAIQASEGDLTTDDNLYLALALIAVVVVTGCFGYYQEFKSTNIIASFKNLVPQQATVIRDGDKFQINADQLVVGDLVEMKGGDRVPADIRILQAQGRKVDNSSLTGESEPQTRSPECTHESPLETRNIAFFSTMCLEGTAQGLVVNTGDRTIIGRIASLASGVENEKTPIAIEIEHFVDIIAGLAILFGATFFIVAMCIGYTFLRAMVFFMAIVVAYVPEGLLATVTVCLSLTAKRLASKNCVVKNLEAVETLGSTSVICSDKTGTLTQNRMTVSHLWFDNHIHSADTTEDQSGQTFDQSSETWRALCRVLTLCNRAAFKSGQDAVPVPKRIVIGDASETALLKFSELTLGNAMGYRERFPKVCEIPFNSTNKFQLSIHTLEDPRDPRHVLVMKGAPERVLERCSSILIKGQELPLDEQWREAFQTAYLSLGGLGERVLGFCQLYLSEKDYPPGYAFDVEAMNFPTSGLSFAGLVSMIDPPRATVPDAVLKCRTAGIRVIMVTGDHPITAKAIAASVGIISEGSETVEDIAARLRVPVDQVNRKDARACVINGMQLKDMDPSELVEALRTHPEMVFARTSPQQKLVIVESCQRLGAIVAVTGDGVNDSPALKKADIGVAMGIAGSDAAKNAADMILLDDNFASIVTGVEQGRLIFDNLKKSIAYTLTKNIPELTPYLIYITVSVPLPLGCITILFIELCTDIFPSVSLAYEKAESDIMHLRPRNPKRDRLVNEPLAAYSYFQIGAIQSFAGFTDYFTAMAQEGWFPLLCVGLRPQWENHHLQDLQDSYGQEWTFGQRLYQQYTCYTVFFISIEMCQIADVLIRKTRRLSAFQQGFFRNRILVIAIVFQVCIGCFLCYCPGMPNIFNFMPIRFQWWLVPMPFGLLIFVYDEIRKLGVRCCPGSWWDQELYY
T1 sequence (P18434 whole entry partner): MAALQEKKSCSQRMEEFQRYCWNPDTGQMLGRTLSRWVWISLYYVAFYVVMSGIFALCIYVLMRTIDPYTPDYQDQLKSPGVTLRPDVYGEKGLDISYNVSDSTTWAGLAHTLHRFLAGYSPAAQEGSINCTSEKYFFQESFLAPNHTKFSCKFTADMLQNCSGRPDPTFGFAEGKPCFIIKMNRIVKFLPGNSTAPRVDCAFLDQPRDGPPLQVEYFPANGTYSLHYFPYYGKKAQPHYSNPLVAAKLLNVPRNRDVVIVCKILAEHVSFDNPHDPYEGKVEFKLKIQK
Experimental: The effects of a single high concentration (100 μM) of a compound of structure (I) on K^+ -stimulated ATPase activity in lyophilised gastric vesicles was determined. Preferred compounds of structure (I) were also tested over a range of concentrations to determine IC50 values.
Lyophilised gastric vesicles were prepared from pig fundic mucosa after the method of Keeling et. al. (Biochem. Pharmacol., 34, 2967, 1985).
K^+ -stimulated ATPase activity was determined at 37° C. in the presence of the following: 10 mM Pipes/Tris buffer pH 7.0, 2 mM MgSO4, 1 mM KCl, 2 mM Na2 ATP and 3-6 μg protein/ml lyophilised gastric vesicles. After incubation for 30 minutes, the inorganic phosphate hydrolysed from ATP was determined by the method of Yoda and Hokin (Biochem. Biophys. Res. Commun. 40, 880, 1970).
Compounds of structure (I) were dissolved in dimethylsulphoxide which up to the highest concentration
used had no effect on K^+ -stimulated ATPase activity.
The effect of the highest concentration of each compound of structure (I) on the recovery of a standard amount of inorganic phosphate was also determined.

[2] = test system: pentagastrin stimulated gastric acid secretion; experiment: Rat Lumen Perfused Stomach (pentagastrin stimulated gastric acid secretion); assay type: in vivo; details: i.v. administration, 10 μmole/kg
Text: B. Rat Lumen Perfused Stomach (pentagastrin stimulated gastric acid secretion).
Using a modification of the procedure described by Ghosh & Schild (Br. J. Pharmacology, 13, 54, 1958), the compounds of the following examples were found on i.v. administration at a concentration of 10 μmole/kg to cause an inhibition of pentagastrin stimulated gastric acid secretion as follows: […]

IC50 [1] [µM]	Compound	% inhibition of pentagastrin stimulated gastric acid secretion [2] [%]
12	CCCC(=O)c1cnc2c(OC)cccc2c1Nc1ccccc1CO [Example 1, 3-butyryl-4-(2-(hydroxymethyl)phenylamino)-8-methoxyquinoline]	33
	CCCC(=O)c1cnc2c(OC)cccc2c1Nc1ccc(CO)cc1 [Example 4, 3-butyryl-4-(4-hydroxymethylphenylamino)-8-methoxyquinoline]	51
6	CCCC(=O)c1cnc2c(OC)cccc2c1Nc1cccc(CO)c1C [Example 6, 3-butyryl-4-(3-hydroxymethyl-2-methylphenylamino)-8-methoxyquinoline]	
2.7	CCCC(=O)c1cnc2c(OC)cccc2c1Nc1c(C)cc2c(c1C)OCO2 [Example 5, 3-butyryl-4-(3,4-methylenedioxy-2,6-dimethylphenylamino)-8-methoxyquinoline]	44
10.2	CCCC(=O)c1cnc2c(OC)cccc2c1Nc1cc(CO)ccc1C [Example 7, 3-butyryl-4-(5-hydroxymethyl-2-methylphenylamino)-8-methoxyquinoline]	25
3.6	CCCC(=O)c1cnc2c(OC)cccc2c1Nc1ccc2c(c1)OCO2 [Example 3, 3-butyryl-4-(3,4-(methylenedioxy)phenylamino)-8-methoxyquinoline]	20
5.5	CCCC(=O)c1cnc2c(OC)cccc2c1Nc1ccccc1COC [Example 2, 3-butyryl-4-(2-methoxymethylphenylamino)-8-methoxyquinoline]	43
